{"source": "patent US20120264119A1", "about": "“NEW METHOD FOR DECONTAMINATION AND PROCESSING OF CLINICAL SPECIMENS FROM A PATIENT” (priority 2011, published 2012)", "origin": "cited, not measured here", "tested_on": "Mycobacteria", "settings": "sputum processing with sodium hydroxide alone or with N-acetyl-cysteine", "data": [{"smiles": "[Na+].[OH-]", "note": "[NaOH, sodium hydroxide]", "values": [{"measurement": "viable mycobacteria destroyed", "value": "more than 80%"}]}]}
